We go through 15 compounds from patent publication US20090105251A1, “Renin inhibitors” (priority 2007, published 2009).

As usually defined, the IC50 is the midpoint of a concentration-inhibition curve.

For the test, the target named is T1, Recombinant human renin (Homo sapiens, UniProt P00797).
T1 construct: isolate the active form (residues 67-406); made in house
T1 sequence (P00797 67-406): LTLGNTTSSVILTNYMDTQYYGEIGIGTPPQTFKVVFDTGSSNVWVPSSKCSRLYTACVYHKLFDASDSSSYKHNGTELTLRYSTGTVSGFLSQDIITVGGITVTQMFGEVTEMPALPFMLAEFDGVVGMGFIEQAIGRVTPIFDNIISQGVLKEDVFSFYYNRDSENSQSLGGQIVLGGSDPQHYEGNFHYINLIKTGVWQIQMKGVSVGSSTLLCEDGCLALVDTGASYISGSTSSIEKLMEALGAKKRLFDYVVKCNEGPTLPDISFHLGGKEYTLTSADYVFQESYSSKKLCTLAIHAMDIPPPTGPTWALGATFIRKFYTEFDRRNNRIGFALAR
As to the kind of experiment: In vitro enzymatic activity assay of renin inhibitors (fluorogenic peptide substrate). Type of test: biochemical. The conditions noted are these: recombinant human renin 3 nM, 1 μM substrate QXL520/HiLyteFluo488 peptide, pH 7.4, 37° C., fluorescence; values given as ranges; read-out: IC50 of Exemplified Compounds Against Renin, IC50. An excerpt:
Test compounds in varying concentrations may be reacted with recombinant human renin in the presence of substrate, e.g., QXL520-γ-Abu-Ile-His-Pro-Phe-His-Leu-Val-Ile-His-Thr-Lys (HiLyteFluo488)-Arg-OH (Anaspec, San Jose, Calif.). The reaction can be followed kinetically using fluorescence (excitation λ=485 nm; emission λ=538 nm). Inhibition constants (IC50) may be calculated by non-linear curve fitting of the compound concentrations and fluorescence intensities to the standard IC50 equation.
Solutions of test compounds in varying concentrations (≦2 mM final concentration) are prepared in dimethyl sulfoxide (DMSO) and then diluted into assay buffer comprising 50 mM Hepes, 1 mM EDTA, 1 mM DTT, 0.1 mg/ml BSA, 0.01% Brij35, pH 7.4. Alternatively, the assay can be performed with a high BSA concentration, wherein the buffer contains an additional 2% BSA.
Recombinant human renin (3 nM final concentration) is added to the dilutions and pre-incubated with the compounds for 10 minutes at 37° C. As described in Examples A-C above, human renin can be obtained by expressing preprorenin (residue 1-406) in mammalian cells, treating the prorenin (residues 24-406) contained in the culture supernatant with trypsin, and isolate the active form (residues 67-406). After pre-incubation, the reaction is initiated with 1 μM of substrate QXL520-γ-Abu-Ile-His-Pro-Phe-His-Leu-Val-Ile-His-Thr-Lys (HiLyteFluo488)-Arg-OH (Anaspec, San Jose, Calif.). The final DMSO in the assay is 5%. The total volume of the reaction mixture is 20 μL, which can be placed on Greiner 384-well small volume plates.
Renin activity may be determined via fluorescence (excitation λ=485 nm; emission λ=538 nm), e.g., on a Molecular Devices SPECTROmax GEMINI XPS. The fluorescence intensity is determined upon the addition of substrate and determined again after incubation at 37° C. for one hour. The fluorescence intensity of a blank (no inhibition) using vehicle alone is also determined. Renin activity is linearly proportional to the change in fluorescence observed (final−initial).
The percent inhibition of renin at a given compound concentration is defined as:
100%×[1−(Fcompound/Fblank)]
where Fcompound is the observed fluorescence at a given concentration of test compound and Fblank is the observed fluorescence in the presence of vehicle alone.
The pIC50 value (negative log of the molar concentration of the compound that produces 50% inhibition) of a test compound is calculated by non-linear least squares curve fitting of the equation:
Percent Inhibition=100%/(1+(10^−pIC50/10^log [I]))
to percent inhibition versus compound concentration. The 50% inhibitory concentration (IC50) of a test compound is calculated by raising 10 to the negative pIC50 (10^−pIC50).
Regarding `O=C(c1cccn1-c1ccccc1Oc1ccccc1)N1CCNC[C@H]1Cc1ccccc1` [Example 42, ((R)-2-benzylpiperazin-1-yl)(1-(2-phenoxyphenyl)-1H-pyrrol-2-yl)methanone], the IC50 was 1 to 50 µM. `Cc1nn(C)c(C(=O)N2CCNC[C@H]2Cc2ccccc2)c1-c1ccccc1Oc1ccccc1` [Example 13, ((R)-2-benzylpiperazin-1-yl)(1,3-dimethyl-4-(2-phenoxyphenyl)-1H-pyrazol-5-yl)methanone]: the IC50 is 1 to 50 µM. Regarding `N#Cc1ccccc1Sc1ccccc1C(=O)N1CCNC[C@H]1Cc1ccccc1` [Example 20, (R)-2-(2-(2-benzylpiperazine-1-carbonyl)phenylthio)benzonitrile], the IC50 fell in the range of 1 to 50 µM. Then `O=C1CC(C(=O)N2CCNC[C@H]2Cc2ccccc2)CN1C(c1ccccc1)c1ccccc1` (stereo partly drawn) [Example 24, 1-benzhydryl-4-((R)-2-benzylpiperazine-1-carbonyl)pyrrolidin-2-one], with 1 to 50 µM. Then `O=C(c1ccccc1Cc1ccccc1)N1CCNC[C@H]1Cc1ccccc1` [Example 21, (R)-(2-benzylphenyl)(2-benzylpiperazin-1-yl)methanone], with 1 to 50 µM. Then `O=C(c1cc(F)ccc1-c1ccccc1Oc1ccccc1)N1CCNC[C@H]1Cc1ccccc1` [Example 16, ((R)-2-benzylpiperazin-1-yl)(4-fluoro-2′-phenoxybiphenyl-2-yl)methanone], with 1 to 50 µM; and `O=C(c1nnc(-c2ccccc2-c2ccccc2)o1)N1CCNC[C@H]1Cc1ccccc1` [Example 46, (R)-(2-benzylpiperazin-1-yl)(5-(biphenyl-2-yl)-1,3,4-oxadiazol-2-yl)methanone], with 1 to 50 µM; and `O=C(c1ccsc1-c1ccccc1Oc1ccccc1)N1CCNC[C@H]1Cc1ccccc1` [Example 12, ((R)-2-benzylpiperazin-1-yl)(2-(2-phenoxyphenyl)thiophen-3-yl)methanone], with less than 1 µM.

`O=C(c1ccc(F)cc1-c1ccccc1Oc1ccccc1)N1CCNC[C@H]1Cc1ccccc1` [Example 15, ((R)-2-benzylpiperazin-1-yl)(5-fluoro-2′-phenoxybiphenyl-2-yl)methanone]: the IC50 was 1 to 50 µM. In the case of `N#Cc1ccccc1Oc1ccccc1-c1ccsc1C(=O)N1CCNC[C@H]1Cc1ccccc1` [Example 10, 2-(2-(2-((R)-2-benzylpiperazine-1-carbonyl)thiophen-3-yl)phenoxy)benzonitrile], the concentration for half-maximal inhibition (IC50) fell in the range of 1 to 50 µM. Then `O=C(c1ccccc1-c1nc2ccccc2s1)N1CCNC[C@H]1Cc1ccccc1` [Example 32, (R)-(2-(benzo[d]thiazol-2-yl)phenyl)(2-benzylpiperazin-1-yl)methanone], with 1 to 50 µM; and `O=C(c1cncn1-c1ccccc1-c1ccccc1)N1CCNC[C@H]1Cc1ccccc1` [Example 27, ((R)-2-benzylpiperazin-1-yl)(1-(biphenyl-2-yl)-1H-imidazol-5-yl)methanone], with 1 to 50 µM; and `O=C(c1nccn1-c1ccccc1C(F)(F)F)N1CCNC[C@H]1Cc1ccccc1` [Example 8, ((R)-2-benzylpiperazin-1-yl)(1-(2-(trifluoromethyl)phenyl)-1H-imidazol-2-yl)methanone], with 50 to 100 µM. Consider `Cc1cc2cc(C(=O)N3CCNC[C@H]3Cc3ccccc3)n(Cc3ccccc3)c2s1` [Example 34, (R)-(6-benzyl-2-methyl-6H-thieno[2,3-b]pyrrol-5-yl)(2-benzylpiperazin-1-yl)methanone], for which the IC50 fell in the range of 1 to 50 µM. Then `Cc1cc(C)c(C#N)c(Oc2ccccc2-c2ccsc2C(=O)N2CCNC[C@H]2Cc2ccccc2)n1` [Example 9, 2-(2-(2-((R)-2-benzylpiperazine-1-carbonyl)thiophen-3-yl)phenoxy)-4,6-dimethylnicotinonitrile], with 1 to 50 µM.
